The subject of experiment [1] is HeLa cells (cervical cancer). In words: Cell proliferation measurement (Cell Titer Glo), HeLa. The settings on record: Homo sapiens, 72 h treatment, read-out: Anti-proliferation IC50 HeLa (Cervical cancer). The class given is cell-based. In short, it runs like this: (§1)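 Cells (1000/well; 500 for HeLa) plated overnight at 37 °C, then exposed to a ≥10-point compound dilution series for 72 h at 37 °C, DMSO 0.3% final as vehicle. Viability read by CellTiter-Glo luminescence; IC50 from 4-parameter fit against untreated wells.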
Background: Cellular ATP, detected with luciferase, serves as a proxy for viable cell number.

The test system of another experiment is SK-MEL-3 (melanoma). In words: Cell proliferation measurement (Cell Titer Glo), SK-MEL-3. The settings on record: Homo sapiens, SK-MEL3, SK-MEL-3 cells, 72 h treatment, read-out: Anti-proliferation IC50 SK-MEL-3 (melanoma). The class given is cell-based. In short, it runs like this: as §1
Another experiment concerns the target T1, human full length PDE3A (Homo sapiens, UniProt Q14432).
T1 construct: Sf9 cells overexpressing human full length PDE3A; purchased SB Drug Discovery, UK; host or cells: Sf9 cells (cell extract)
The experiment can be described thus: PDE3A enzyme inhibition (3H-cAMP Scintillation Proximity Assay). The settings on record: PDE3A cell extract from Sf9 cells, 60 min room temperature; read-out: Target IC50 PDE3A IC50. Format: biochemical. Put shortly:
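Sf9 cell extract overexpressing human full-length PDE3A, diluted for linear kinetics (<70% substrate used), in 50 mM Tris/HCl pH 7.5, 8.3 mM MgCl2, 1.7 mM EDTA, 0.2% BSA. [8-3H]cAMP substrate, 60 min at room temperature, yttrium SPA bead read-out; IC50 from sigmoidal curves of % activity.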
(SPA uses beads or plates that emit light when radiolabelled molecules are held near them.)

The target in the next experiment is T2, human full length PDE3B (Homo sapiens, UniProt Q13370).
T2 construct: Sf9 cells overexpressing human full length PDE3B; purchased SB Drug Discovery, UK; host or cells: Sf9 cells (cell extract)
T2 sequence (Q13370 whole entry): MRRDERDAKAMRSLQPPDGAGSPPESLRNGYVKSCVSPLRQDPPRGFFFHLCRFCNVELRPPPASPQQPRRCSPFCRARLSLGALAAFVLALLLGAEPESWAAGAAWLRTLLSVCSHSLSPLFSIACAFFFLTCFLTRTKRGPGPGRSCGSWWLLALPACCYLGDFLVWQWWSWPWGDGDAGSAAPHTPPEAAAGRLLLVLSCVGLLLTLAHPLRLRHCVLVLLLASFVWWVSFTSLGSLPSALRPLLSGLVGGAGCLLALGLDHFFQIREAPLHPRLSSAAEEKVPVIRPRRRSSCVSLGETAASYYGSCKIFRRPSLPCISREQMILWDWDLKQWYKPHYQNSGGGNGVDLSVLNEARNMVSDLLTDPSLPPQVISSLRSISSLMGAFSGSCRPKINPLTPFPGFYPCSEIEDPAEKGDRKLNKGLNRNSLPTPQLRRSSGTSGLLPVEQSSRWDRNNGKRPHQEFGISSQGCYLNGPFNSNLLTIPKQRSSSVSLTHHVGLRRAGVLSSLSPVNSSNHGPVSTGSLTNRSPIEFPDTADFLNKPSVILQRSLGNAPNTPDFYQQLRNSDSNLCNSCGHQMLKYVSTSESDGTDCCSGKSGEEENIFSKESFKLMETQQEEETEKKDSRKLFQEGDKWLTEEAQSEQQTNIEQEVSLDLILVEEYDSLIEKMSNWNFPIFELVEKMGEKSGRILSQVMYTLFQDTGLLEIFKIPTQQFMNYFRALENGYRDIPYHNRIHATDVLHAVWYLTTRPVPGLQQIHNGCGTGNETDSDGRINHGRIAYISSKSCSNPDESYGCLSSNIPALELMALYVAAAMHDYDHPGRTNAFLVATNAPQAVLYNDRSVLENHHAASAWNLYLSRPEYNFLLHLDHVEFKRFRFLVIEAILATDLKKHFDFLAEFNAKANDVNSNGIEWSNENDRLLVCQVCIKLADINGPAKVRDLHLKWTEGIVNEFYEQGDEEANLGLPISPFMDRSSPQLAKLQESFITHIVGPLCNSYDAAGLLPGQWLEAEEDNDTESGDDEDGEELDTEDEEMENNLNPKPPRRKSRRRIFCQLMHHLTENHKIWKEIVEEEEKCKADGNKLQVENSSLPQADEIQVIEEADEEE
The experiment can be described thus: PDE3B enzyme inhibition (3H-cAMP Scintillation Proximity Assay). Format: biochemical. The settings on record: PDE3B cell extract from Sf9 cells, 60 min room temperature; read-out: Target IC50 PDE3B IC50. Put shortly:
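SPA with Sf9 cell extract overexpressing human full-length PDE3B, diluted for linear kinetics and <70% substrate turnover, in 50 mM Tris/HCl pH 7.5, 8.3 mM MgCl2, 1.7 mM EDTA, 0.2% BSA. [8-3H]cAMP substrate, 60 min at room temperature, stopped with yttrium SPA beads. IC50 from sigmoidal fit of % activity vs log concentration.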

pIC50: −log10 of the molar value.

T1 sequence (Q14432 whole entry): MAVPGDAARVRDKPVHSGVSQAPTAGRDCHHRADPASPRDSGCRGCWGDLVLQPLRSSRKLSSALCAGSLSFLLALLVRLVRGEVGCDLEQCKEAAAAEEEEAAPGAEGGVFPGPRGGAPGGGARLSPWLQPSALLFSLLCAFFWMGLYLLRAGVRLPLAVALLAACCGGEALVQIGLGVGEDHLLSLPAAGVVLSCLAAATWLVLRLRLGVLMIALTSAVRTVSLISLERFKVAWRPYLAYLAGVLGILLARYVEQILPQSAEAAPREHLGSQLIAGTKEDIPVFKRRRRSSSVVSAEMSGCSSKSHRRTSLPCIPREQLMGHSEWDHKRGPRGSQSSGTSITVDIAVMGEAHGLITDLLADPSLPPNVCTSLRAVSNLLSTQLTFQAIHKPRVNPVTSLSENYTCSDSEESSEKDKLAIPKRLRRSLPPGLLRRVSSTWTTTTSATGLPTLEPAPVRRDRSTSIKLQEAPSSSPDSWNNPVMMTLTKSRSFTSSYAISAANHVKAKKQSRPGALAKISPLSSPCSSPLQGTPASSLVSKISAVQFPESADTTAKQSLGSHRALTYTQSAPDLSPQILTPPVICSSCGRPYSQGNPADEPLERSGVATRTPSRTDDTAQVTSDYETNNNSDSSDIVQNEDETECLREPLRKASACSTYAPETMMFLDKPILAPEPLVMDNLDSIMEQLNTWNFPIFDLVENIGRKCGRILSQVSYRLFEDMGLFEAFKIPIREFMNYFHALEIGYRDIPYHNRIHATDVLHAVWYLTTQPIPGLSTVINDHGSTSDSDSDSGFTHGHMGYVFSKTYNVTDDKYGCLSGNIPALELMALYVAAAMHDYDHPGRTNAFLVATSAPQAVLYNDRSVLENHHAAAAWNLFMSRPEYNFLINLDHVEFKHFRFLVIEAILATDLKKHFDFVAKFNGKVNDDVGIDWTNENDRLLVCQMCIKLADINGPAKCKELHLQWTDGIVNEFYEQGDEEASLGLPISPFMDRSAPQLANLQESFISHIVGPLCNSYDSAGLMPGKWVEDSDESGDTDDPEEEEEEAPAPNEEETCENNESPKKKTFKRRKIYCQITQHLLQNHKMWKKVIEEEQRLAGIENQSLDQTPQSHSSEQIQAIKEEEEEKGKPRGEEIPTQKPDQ

With `Cc1ccc(-c2ccc(C3=NNC(=O)CC3)cc2F)c(C)c1` [Example 56, 6-(2-fluoro-2′,4′-dimethyl[1,1′-biphenyl]-4-yl)-4,5-dihydropyridazin-3(2H)-one], the pIC50 in experiment [1] is 8.36; in the experiment with SK-MEL-3 (melanoma), 8.14; on human full length PDE3A, 6.96; on human full length PDE3B, 7.21.
Consider `Cc1ccc(F)cc1-c1ccc(C2=NNC(=O)CC2)cc1F` [Example 57, 6-(2,5′-difluoro-2′-methyl[1,1′-biphenyl]-4-yl)-4,5-dihydropyridazin-3(2H)-one], for which the pIC50 in experiment [1] is 8.27; in the experiment on SK-MEL-3 (melanoma) it was 7.93; at human full length PDE3A it was 6.74; on human full length PDE3B, 7.22.
For the compound `Cc1ccc(-c2ccc(C3=NNC(=O)CC3)cc2F)cc1F` [Example 58, 6-(2,3′-difluoro-4′-methyl[1,1′-biphenyl]-4-yl)-4,5-dihydropyridazin-3(2H)-one], the pIC50 in experiment [1] was 8.33; in the experiment with SK-MEL-3 (melanoma), 8.11; at human full length PDE3A, 6.60; at human full length PDE3B it was 7.08.
The corresponding values for `O=C1CCC(c2ccc(-c3ccccc3F)c(F)c2)=NN1` [Example 60, 6-(2,2′-difluoro[1,1′-biphenyl]-4-yl)-4,5-dihydropyridazin-3(2H)-one] are 8.68, 8.38, 7.02 and 7.33.
The corresponding values for `COc1ccccc1-c1ccc(C2=NNC(=O)CC2)cc1F` [Example 62, 6-(2-fluoro-2′-methoxy[1,1′-biphenyl]-4-yl)-4,5-dihydropyridazin-3(2H)-one] are 7.85, 7.64, 6.92 and 7.33.
On to `O=C1CCC(c2ccc(-c3cccc(F)c3)c(F)c2)=NN1` [Example 63, 6-(2,3′-difluoro[1,1′-biphenyl]-4-yl)-4,5-dihydropyridazin-3(2H)-one], for which the pIC50 is 8.32 in experiment [1], 8.19 in the experiment with SK-MEL-3 (melanoma), 6.60 on human full length PDE3A and 7.06 on human full length PDE3B.
The corresponding values for `COc1cccc(-c2ccc(C3=NNC(=O)CC3)cc2F)c1` [Example 64, 6-(2-fluoro-3′-methoxy[1,1′-biphenyl]-4-yl)-4,5-dihydropyridazin-3(2H)-one] are 7.92, 7.64, 7.00 and 7.04.
Turning to `Nc1cccc(-c2ccc(C3=NNC(=O)CC3)cc2F)c1` [Example 65, 6-(3′-amino-2-fluoro[1,1′-biphenyl]-4-yl)-4,5-dihydropyridazin-3(2H)-one], the pIC50 in experiment [1] is 7.89; in the experiment with SK-MEL-3 (melanoma), 7.77; at human full length PDE3A it was 6.92; on human full length PDE3B, 7.12.
On the same counts, the results for `Nc1ccccc1-c1ccc(C2=NNC(=O)CC2)cc1F` [Example 66, 6-(2′-amino-2-fluoro[1,1′-biphenyl]-4-yl)-4,5-dihydropyridazin-3(2H)-one] are under 7.00, under 7.00, 6.48 and 6.54.
For the compound `Cc1ccncc1-c1ccc(C2=NNC(=O)CC2)cc1F` [Example 67, 6-[3-fluoro-4-(4-methylpyridin-3-yl)phenyl]-4,5-dihydropyridazin-3(2H)-one], the pIC50 in experiment [1] was 8.68; in the experiment with SK-MEL-3 (melanoma), 8.44; on human full length PDE3A, 7.25; on human full length PDE3B, 7.55.
On the same counts, the results for `Cc1ccc(F)c(-c2ccc(C3=NNC(=O)CC3)cc2F)c1` [Example 68, 6-(2,2′-difluoro-5′-methyl[1,1′-biphenyl]-4-yl)-4,5-dihydropyridazin-3(2H)-one] are 7.44, 7.15, 6.80 and 7.00.
On to `O=C1CCC(c2ccc(-c3ccncc3Cl)c(F)c2)=NN1` [Example 69, 6-[4-(3-chloropyridin-4-yl)-3-fluorophenyl]-4,5-dihydropyridazin-3(2H)-one], for which the pIC50 was 7.74 in experiment [1], 7.41 in the experiment on SK-MEL-3 (melanoma), 6.85 on human full length PDE3A and 7.02 at human full length PDE3B.

For the origin of these results see US11897867B2, “6-phenyl-4,5-dihydropyridazin-3(2H)-one derivatives as PDE3A and PDE3B inhibitors for treating cancer” (Bayer Aktiengesellschaft, priority 2017, dated 2024).
